Reference: patent US7960368B2, “Bismethylene-17A carbolactones and related uses” (Everstra, Inc., priority 2008, dated 2011)
“And” between values parts separate entries of the source, which are not always exact repeats. Equal values may be shown once. Read-outs that look alike come from different tables or passages of the source.

Tests used:
[1] = target: T1, recombinant human progesterone receptor A (hPR-A) (Homo sapiens, UniProt P06401); assay: Progestin receptor binding assay, hPR-A; settings: for IC50: competition with [3H]-progesterone; for hPR-A RBA: relative binding affinity, progesterone = 100
T1 sequence (P06401 1-769 isoform P06401-2): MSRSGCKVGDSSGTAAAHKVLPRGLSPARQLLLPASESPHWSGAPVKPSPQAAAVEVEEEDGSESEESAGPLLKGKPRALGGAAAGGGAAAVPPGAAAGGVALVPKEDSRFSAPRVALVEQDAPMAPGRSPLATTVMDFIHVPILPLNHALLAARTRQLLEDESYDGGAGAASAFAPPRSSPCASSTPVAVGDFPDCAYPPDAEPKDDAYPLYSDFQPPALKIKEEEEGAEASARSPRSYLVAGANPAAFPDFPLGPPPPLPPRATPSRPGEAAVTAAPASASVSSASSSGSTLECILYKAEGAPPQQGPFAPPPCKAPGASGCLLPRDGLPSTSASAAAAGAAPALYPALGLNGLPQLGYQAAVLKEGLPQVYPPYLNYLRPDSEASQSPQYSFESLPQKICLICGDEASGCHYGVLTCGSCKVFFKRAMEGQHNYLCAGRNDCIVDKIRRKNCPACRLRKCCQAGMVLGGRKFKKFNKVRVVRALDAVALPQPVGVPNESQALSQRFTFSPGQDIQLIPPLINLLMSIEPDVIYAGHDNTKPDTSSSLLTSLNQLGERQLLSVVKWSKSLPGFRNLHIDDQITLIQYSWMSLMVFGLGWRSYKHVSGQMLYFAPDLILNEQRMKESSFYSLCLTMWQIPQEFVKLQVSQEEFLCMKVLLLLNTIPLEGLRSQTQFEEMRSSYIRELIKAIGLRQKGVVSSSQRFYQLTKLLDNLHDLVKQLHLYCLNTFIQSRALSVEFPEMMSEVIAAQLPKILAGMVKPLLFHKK
Method: (§1) “No compound” controls contain DMSO/binding buffer without compound. The plates are incubated overnight at 4° C., after which solutions in the plates are aspirated and washed six times with PBS, followed by the addition of MicroScint-20 scintillation cocktail (Packard). The plates are sealed using transparent sealing tape and counted for radioactivity by use of the scintillation counter.

[2] = target: T2, recombinant human progesterone receptor B (hPR-B) (Homo sapiens, UniProt P06401); assay: Progestin receptor binding assay, hPR-B; settings: for IC50: competition with [3H]-progesterone; for hPR-B RBA: relative binding affinity, progesterone = 100
T2 sequence (P06401 1-933): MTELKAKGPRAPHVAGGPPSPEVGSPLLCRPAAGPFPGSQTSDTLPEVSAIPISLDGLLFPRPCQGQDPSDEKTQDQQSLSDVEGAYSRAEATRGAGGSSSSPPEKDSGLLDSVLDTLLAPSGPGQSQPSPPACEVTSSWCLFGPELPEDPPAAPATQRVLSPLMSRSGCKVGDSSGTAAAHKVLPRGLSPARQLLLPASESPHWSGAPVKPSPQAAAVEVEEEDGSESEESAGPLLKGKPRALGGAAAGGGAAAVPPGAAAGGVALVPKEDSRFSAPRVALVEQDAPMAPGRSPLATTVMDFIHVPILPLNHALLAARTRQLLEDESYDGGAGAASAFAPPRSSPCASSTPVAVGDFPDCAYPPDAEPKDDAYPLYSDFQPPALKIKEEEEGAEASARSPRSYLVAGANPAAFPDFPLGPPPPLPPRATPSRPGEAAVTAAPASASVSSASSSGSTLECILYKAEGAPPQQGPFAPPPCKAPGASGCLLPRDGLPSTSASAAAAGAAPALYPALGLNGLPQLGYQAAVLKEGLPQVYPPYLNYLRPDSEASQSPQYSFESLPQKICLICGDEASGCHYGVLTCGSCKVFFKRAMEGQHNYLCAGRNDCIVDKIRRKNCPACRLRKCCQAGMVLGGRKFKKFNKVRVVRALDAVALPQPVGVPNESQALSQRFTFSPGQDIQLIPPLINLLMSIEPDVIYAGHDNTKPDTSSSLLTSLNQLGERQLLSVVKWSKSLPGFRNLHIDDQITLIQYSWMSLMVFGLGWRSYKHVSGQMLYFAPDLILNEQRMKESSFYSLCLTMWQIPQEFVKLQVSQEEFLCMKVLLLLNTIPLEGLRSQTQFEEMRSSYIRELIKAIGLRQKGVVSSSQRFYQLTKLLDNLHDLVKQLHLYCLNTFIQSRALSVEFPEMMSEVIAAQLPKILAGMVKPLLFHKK
Method: as §1

[3] = target: T3, recombinant rat androgen receptor ligand binding domain (ARLBD) (Rattus norvegicus, UniProt P15207); assay: Androgen receptor binding assay; settings: for IC50: superscript marks the assay run
T3 sequence (P15207 651-882 limits assumed): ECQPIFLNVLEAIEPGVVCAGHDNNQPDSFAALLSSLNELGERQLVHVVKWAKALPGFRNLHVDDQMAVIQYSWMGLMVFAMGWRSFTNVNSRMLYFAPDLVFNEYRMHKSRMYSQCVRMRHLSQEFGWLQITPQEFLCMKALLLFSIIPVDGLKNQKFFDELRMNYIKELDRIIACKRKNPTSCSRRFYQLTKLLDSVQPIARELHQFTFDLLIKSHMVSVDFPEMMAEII
Method: The relative affinity of test substances for the androgen receptor was taken as a measure of androgen antagonist activity and of the potential for anti-androgen side effects. […] Different concentrations (e.g., 10 nM, 15 nM or 30 nM) of purified recombinant ARLBD are immobilized to an OptiPlate 96-well microtiter plate (Packard) via incubation at 4° C. in 100 μl/well PBS containing ARLBD. […] “No compound” controls contain DMSO/binding buffer without compound. The plates are incubated overnight at 4° C., after which solutions in the plates are aspirated and washed six times with PBS, followed by the addition of MicroScint-20 scintillation cocktail (Packard). The plates are sealed using transparent sealing tape and counted for radioactivity by use of the scintillation counter. The data thus obtained is used to determine the IC50 values and the relative binding affinity (“RBA”) of the androgen receptor for the test compound.

[4] = target: T4, recombinant human glucocorticoid receptor (rhGR) (Homo sapiens, UniProt P04150); assay: Glucocorticoid receptor binding assay; settings: hGR IC50, competition with 10 nM [3H]dexamethasone; superscript marks the assay run
T4 sequence (P04150 1-777): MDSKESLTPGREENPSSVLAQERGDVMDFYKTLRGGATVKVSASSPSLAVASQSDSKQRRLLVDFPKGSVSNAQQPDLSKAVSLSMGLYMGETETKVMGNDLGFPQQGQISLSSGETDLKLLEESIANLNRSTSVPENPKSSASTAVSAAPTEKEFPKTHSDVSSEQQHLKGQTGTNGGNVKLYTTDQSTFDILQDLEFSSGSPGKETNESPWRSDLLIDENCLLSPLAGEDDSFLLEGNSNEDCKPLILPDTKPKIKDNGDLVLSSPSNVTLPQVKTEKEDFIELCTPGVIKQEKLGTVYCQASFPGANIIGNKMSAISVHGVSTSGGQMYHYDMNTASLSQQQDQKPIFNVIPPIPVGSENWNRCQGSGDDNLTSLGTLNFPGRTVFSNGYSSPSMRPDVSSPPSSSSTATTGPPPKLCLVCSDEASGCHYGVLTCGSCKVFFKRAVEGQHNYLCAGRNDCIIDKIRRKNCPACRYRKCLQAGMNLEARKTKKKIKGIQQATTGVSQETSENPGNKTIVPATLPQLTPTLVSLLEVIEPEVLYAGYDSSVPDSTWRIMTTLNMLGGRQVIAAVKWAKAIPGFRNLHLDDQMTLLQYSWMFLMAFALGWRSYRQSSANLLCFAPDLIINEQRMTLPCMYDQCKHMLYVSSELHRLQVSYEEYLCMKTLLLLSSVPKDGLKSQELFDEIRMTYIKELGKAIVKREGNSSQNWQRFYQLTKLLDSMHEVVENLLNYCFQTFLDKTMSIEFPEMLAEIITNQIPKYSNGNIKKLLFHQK
Method: DCC is added to the wells after incubation to separate bound and unbound radioligand using a repeater pipettor to reduce variability.
Recombinant human GR: 8.6 pmol/mg, 80 pmol/ml. • 2. KEM buffer (10 mM KPO4, pH 7.4, 0.1 mM EDTA, 20 mM Na2MoO4) • 3. KEMD buffer (KEM buffer+5 mM DTT, add DTT the day of assay) • 4. […] 5% Dextran-coated charcoal solution in DEM buffer B. Assay Method—Set Up on Ice. • 1. Dilute 4×10^−3 M CDB-3972 to 4×10^−5 M (40 μM) in KEMD for NSB. The final concentration will be 10 μM. • 2. Thaw the rhGR on ice. […] Dilute rhGR 1:5 (80 pmol/ml) to 16.0 pmol/ml in KEMD. At 25 μl/tube, the final concentration will be 400 fmol/tube in KEMD. • 3. Prepare KEMD containing 10% ethanol. Dilute the compounds to be assayed in KEMD containing 10% ethanol to the working concentrations specified in Table 3. • 4. Prepare a 40 nM solution [^3H]Dex in KEMD containing 10% ethanol. The final concentration will be 10 nM. • 5. Set up the assay in microplates. Use 3 wells for total counts (no receptor), 3 NSB, 6 total binding, and triplicate wells for each concentration of dex or CDB compound. […] Mix gently, and incubate overnight at 2-6° C.
The next morning, prechill the Jouan centrifuge with microplate rotor. Add 50 μl of 5% DCC in KEM to all but total counts using a repeater pipettor. Make sure the DCC is constantly mixed and thoroughly resuspended before adding to the wells. • 7. Mix gently in the cold room for 5 min on plate shaker. • 8. Centrifuge at 3,000 rpm in the Jouan centrifuge at 4° C. for 15 min. • 9. Keeping the plates on ice, pipet 100 μl of the supernatants into 24-well plates, add 1 ml of Microscint PS, and seal the plates. Pre-incubate the plates for 10 min in the counter, and count each well for 2 min in the TopCount.

[5] = acidic conditions such as the gastric environment; cited from earlier work
[6] = various pH values; cited from earlier work
[7] = single entity tablet; cited from earlier work
[8] = competition with 5 nM [3H]-R1881, read-out: ARLBD IC50
[9] = ARLBD IC50, competition with 5 nM [3H]-R1881

Row | SMILES | IC50 [1] [nM] | hPR-A RBA [1] [%] | IC50 [2] [nM] | hPR-B RBA [2] [%] | ARLBD RBA [3] | IC50 [3, 8] | IC50 [4] | IC50 [3, 9] | ARLBD RBA ([3]; relative binding affinity, R1881 = 100, same assay run) [%] | isomerization under acidic conditions [5] | solubility in water [6] | absolute bioavailability [7]
1 | C[C@]12CC3(CC3)C(=O)C=C1[C@@H]1CC1C1C2CC[C@@]2(C)C1[C@@H]1CC1[C@@]21CCC(=O)O1 (stereo partly drawn) [Compound (IIIe), 2,2-Ethylene-6β,7β:15β,16β-dimethylene-3-oxo-17α-pregn-4-ene-21,17-carbolactone] | > 1000 | <0.6 | > 1000 | <0.6 | <0.6% and <0.5% | > 1000 nM | > 1000 nM |  |  |  |  | 
2 | C[C@]12CCC(=O)C=C1C1(CC1)CC1C2CC[C@@]2(C)C1[C@@H]1CC1[C@@]21CCC(=O)O1 (stereo partly shown) [Compound (IVa)] | 3.5 | 149 | 5.1 | 116 | 20% and 25% |  | 45.1 nM and 64 nM | 28 nM and 17.7 nM |  |  |  | 
3 | C[C@]12C=CC(=O)C=C1C1(CC1)CC1C2CC[C@@]2(C)C1[C@@H]1CC1[C@@]21CCC(=O)O1 (stereo partly drawn) [Compound (IVb), 6,6-ethylene-15β,16β-methylene-3-oxo-17α-pregna-1,4-diene 21,17-carbolactone] | 13.8 | 38 | 15.4 | 38 | 5% and 4% | 101 nM and 108 nM | 87.9 nM and 121 nM |  |  |  |  | 
4 | C[C@@]12C(=CC(=O)C3C[C@@H]31)C1(CC1)CC1C2CC[C@@]2(C)C1[C@@H]1CC1[C@@]21CCC(=O)O1 (stereo partly drawn) [Compound (IVc), 1α,2α:15β,16β-Dimethylene-6,6-ethylene-3-oxo-17α-pregn-4-ene-21,17-carbolactone] | 6.7 | 78 | 8.3 | 71 | 7% and 5% |  | 117 nM and 300 nM | 83.6 nM and 80.9 nM |  |  |  | 
5 | C[C@]1(O)CC[C@H]2[C@@H]3CCC4=CC(=O)CCC4=C3C=C[C@@]21C [Compound R1881, methyltrienolone, reference compound] |  |  |  |  |  |  |  |  | 100 |  |  | 
6 | C[C@]12CCC(=O)C=C1[C@@H]1C[C@@H]1[C@H]1[C@@H]3[C@@H]4C[C@@H]4[C@@]4(CCC(=O)O4)[C@@]3(C)CC[C@@H]12 [Drospirenone, 6β,7β,15β,16β-dimethylene-3-oxo-17α-pregn-4-ene-21,17-carbolactone] |  | 23 |  | 29 |  |  |  |  |  | undergo isomerization to a form that is inactive | sparingly soluble | about 76%
